From patent US7939639B2, “Functional role of adrenomedullin (AM) and the gene related product (PAMP) in human pathology and physiology” (The United States of America as represented by the …, priority 1995, dated 2011)
Entries after “also recorded” stand apart in the source; their conditions may differ.

Key:
S. aureus = experiment: Micro-/macrodilutional assays, S. aureus; type: cell-based, Staphylococcus aureus; settings: microdilutional or macrodilutional assays
Description: Inhibition of growth of E. coli was assessed in a microdilutional timed kill assay. (See FIG. 22) Bacteria and Candida albicans were grown overnight on trypticase soy agar (TSA) and Sobouraud dextrose agar (SDA) plates, respectively, were suspended into RPMI-1640 medium (Bio-Whittaker) and adjusted to a final concentration of 8×10^3 cfu/ml in […] in plastic microdilution trays. […] Plates were incubated at 37° C. with gentle agitation over 24 hours. At 6 hr and 24 hr time points, 10 to […] aliquots from each well were quantitatively cultured by serial 100-fold dilutions onto TSA and SDA plates.
(§1) Data were compiled from six experiments. Macrodilution assays were performed in 12×75 mm borosilicate glass tubes. Organisms were grown and harvested, as described in Roilides, E., et al., J Infect Dis. 163:579 (1991), and adjusted to a final inoculum concentration of 8×10^3 cfu/ml in 400 μl. […] Tubes were incubated at 37° C. with gentle agitation over 24 hours. At 6 and 24 hour time points, 100 μl aliquots from each tube were quantitatively cultured by serial 100-fold dilutions onto TSA and SDA plates.

E. coli = experiment: Macrodilution assay, E. coli; type: cell-based, Escherichia coli; settings: E. coli
Description: as §1

[1] = Oral glucose tolerance test in nonanesthetized rats; type: in vivo, Sprague-Dawley rats
Description: Glucose tolerance tests were performed on Sprague-Dawley rats (250 to 300 g) in the presence (◯) or absence (●) of AM. […] Glucose tolerance methods have been published previously (Brown, et al., Proc. Soc. Exp. Biol. Med. 150, 557 (1975)). Six rats were administered a glucose solution (400 mg/100 g body weight) via gastric intubation. Ocular blood samples were collected at intervals following glucose loading, and glucose concentration was determined by a calorimetric assay (Sigma). Blood insulin levels were determined on the same samples by radioimmunoassay (Amersham). Three days later, the same rats received 1 μL, of AM (60 μM) per g body weight through intravenous injection and tolerance tests were repeated. Data are means±standard deviations for the six animals. Two-tailed Student's test was performed to determine statistical significance. (*) indicates statistical significance (p<0.01).

[2] = test system: RINm, N289, TR4, CRL 2057, CRL 1777, CRL 2055; experiment: Insulin secretion of insulin-producing cell lines; type: cell-based; settings: six insulin-producing cell lines
Description: A similar mechanism has been described for amylin (R. A. Pittner et al., J. Cell. Biochem. 55S, 19 (1994)).

AM receptor = experiment: cAMP assay (RIA), MCF-7; type: cell-based, human
Description: k. cAMP Assays: Cyclic AMP was assayed by RIA using a kit obtained from New England Nuclear (Boston, Mass.). […] The supernatants were tested for cAMP using the RIA kit following the manufacturer's instructions.

rat isolated islets = experiment: cAMP content of rat isolated islets (RIA); type: cell-based; settings: after addition of AM
Description: Dose-dependent increase of intracellular cAMP in the islets following addition of AM. Islets from six rats were isolated following well-established protocols (Gray, et al., Diabetes 33, 1055 (1984)). Assays were performed in 24-well plates (90 islets per well). After a 45 min incubation in […] medium containing 5.6 mM glucose, a second incubation in RPMI containing 20.6 mM glucose and the proper concentration of AM and/or the antibody was performed. Supernatants from both incubations were tested by radioimmunoassay (RIA) for insulin (Amersham, Arlington Heights, Ill.). The ratio between the insulin concentration found in the high glucose supernatant and the insulin measured in the low glucose solution is represented in ordinates. After collecting the medium, the islets from the same experiments were saved for analysis of cAMP contents (Korman, et al., Cancer Res. 46, 1214 (1986)). Islets were extracted in 50% ethanol and centrifuged, and the supernatants were tested for cAMP using a RIA kit (New England Nuclear, Boston, Mass.) following manufacturer's instructions. The experiments were repeated three times and a representative example shown. Data are means±standard deviations of two wells.

MCF-7 = experiment: MTT growth assay, MCF-7; type: cell-based, human
Description: i. Growth Assays: MTT techniques were performed as previously described (Nakanishi, Y. F., et al., Exper. Cell Biol. 56:74-85 (1988)). In brief, a single cell suspension of 2×10^5 cells/ml (50 μl/well) is seeded into 96-well PVC plates and an appropriate concentration of MoAb-G6 and AM was added in a volume of 50 μl. The assay is performed in TIS medium (RMPI 1640 plus 10 μg/ml transferrin, 10 μg/ml insulin and 3×10^−8M sodium selenite). After 5 days growth at 37° C., 5% CO2, in a humid incubator, the dye and solubilization solutions were added from the Promega Proliferation Assay (Madison, Wis.), which is a variation of the MTT assay (Carmichael, Y. F., et al., Cancer Res. 47:943-946 (1987)). The Biorad Microplate Manager plate reader and software was used to determine the change in number of viable cells from dye reduction measured by absorbance at 570 nm.

For `CC[C@H](C)[C@H](NC(=O)[C@H](CCC(N)=O)NC(=O)[C@H](Cc1c[nH]cn1)NC(=O)[C@H](C)NC(=O)[C@H](CC(C)C)NC(=O)[C@H](CCCCN)NC(=O)[C@H](CCC(N)=O)NC(=O)[C@@H](NC(=O)[C@@H](NC(=O)[C@@H]1CSSC[C@H](NC(=O)CNC(=O)[C@H](Cc2ccccc2)NC(=O)[C@H](CO)NC(=O)[C@H](CCCNC(=N)N)NC(=O)[C@H](CC(C)C)NC(=O)CNC(=O)[C@H](CCC(N)=O)NC(=O)[C@H](Cc2ccccc2)NC(=O)[C@H](CC(N)=O)NC(=O)[C@H](CC(N)=O)NC(=O)[C@H](CCSC)NC(=O)[C@H](CO)NC(=O)[C@H](CCC(N)=O)NC(=O)[C@H](CCCNC(=N)N)NC(=O)[C@@H](N)Cc2ccc(O)cc2)C(=O)N[C@@H](CCCNC(=N)N)C(=O)N[C@@H](Cc2ccccc2)C(=O)NCC(=O)N[C@@H]([C@@H](C)O)C(=O)N1)[C@@H](C)O)C(C)C)C(=O)N[C@@H](Cc1ccc(O)cc1)C(=O)N[C@@H](CCC(N)=O)C(=O)N[C@@H](Cc1ccccc1)C(=O)N[C@H](C(=O)N[C@@H](CC(=O)O)C(=O)N[C@@H](CCCCN)C(=O)N[C@@H](CC(=O)O)C(=O)N[C@@H](CCCCN)C(=O)N[C@@H](CC(=O)O)C(=O)N[C@@H](CC(N)=O)C(=O)N[C@H](C(=O)N[C@@H](C)C(=O)N1CCC[C@H]1C(=O)N[C@@H](CCCNC(=N)N)C(=O)N[C@@H](CO)C(=O)N[C@@H](CCCCN)C(=O)N[C@H](C(=O)N[C@@H](CO)C(=O)N1CCC[C@H]1C(=O)N[C@@H](CCC(N)=O)C(=O)NCC(=O)N[C@@H](Cc1ccc(O)cc1)C(N)=O)[C@@H](C)CC)C(C)C)[C@@H](C)O` [AM], the “growth suppressive activity against S. aureus” value (S. aureus) was “ineffective; also recorded: no apparent growth suppressive activity”, the “antimicrobial activity, macrodilution, 6 hours” value (E. coli; 6 hours incubation) was “no activity” and the “antimicrobial activity, macrodilution, 24 hours” value (E. coli; 24 hours incubation) was “somewhat more active than PAMP; also recorded: slightly more active than PAMP”. For the same compound, the “insulin levels versus control” value ([1]; 20 min after intravenous injection of AM) was “Significant differences”, the “duration of block of insulin secretion” value ([1]; after intravenous injection of AM (1 μL of 60 μM per g body weight)) was “at least 20 min” and the “levels of circulating glucose versus control” value ([1]; after intravenous injection of AM, 1 h) was “significantly higher; also recorded: highly significant”. For the same compound, the EC50 (rat mast cells) was 7.9 ± 3.9 µM, the “change in insulin secretion rate” value [2] was “no change in insulin secretion rate; also recorded: not directly affected” and the “effect on cAMP” value (AM receptor; MCF-7) was “activated; also recorded: rapid increase in cellular cAMP”. For the same compound, the “maximum elevation of cellular cAMP” value (AM receptor; relative to normal control) was “three times that of the normal control”, the “cAMP levels in the islets” value (rat isolated islets) was “Elevating levels of cAMP; also recorded: cAMP levels increased” and the “growth suppression by synthetic AM alone” value (MCF-7; AM 10 μM (FIG. 12B)) was “≈ 10%”. For the same compound, the “reversal of MoAb-G6 growth inhibition by exogenous AM” value (MCF-7; MCF-7) was “abrogated”.
